# US9809598B2 (Merck Patent GmbH, priority 2014, dated 2017)
# Where a name gives a salt, the structure may show the parent alone. Read-outs that look alike come from different tables or passages of the source.
# How the values were obtained:
# Solubility pH 7.4 = type: physicochemical; settings: pH 7.4, aqueous buffer
# [1] = Microsomal stability (intrinsic clearance), mouse liver microsomes; type: in vitro ADME; settings: pH 7.4
# Description: (§1) Test Method Microsomal Stability (Intrinsic Clearance)
# (§2) A microsomal stability assay is used to measure in vitro clearance (Clint). The assay involves measuring the rate of disappearance of a compound due to its intrinsic attitude to be metabolized (“intrinsic” meaning that the disappearance is not affected by other properties like permeability, binding etc. that play a role when quantifying in vivo clearance). The microsomal stability (intrinsic clearance, Clint) and thus metabolic stability is generally given as μl/min/mg protein. It can be visualized as the volume of solution that 1 mg of microsomes is able to clear of the compound in one minute.
# (§3) A Tecan Genesis workstation (RSP 150/8) was used for to perform the microsomal incubations. Analysis was carried out using a Waters ACQUITY UPLC system coupled to an ABSciex API3000 mass spectrometer. Data analysis was performed using Assay Explorer (Symyx).
# (§4) Chemicals • Potassium phosphate buffer: 0.05 M potassium phosphate buffer pH 7.4 containing 1 mM MgCl2 • NADPH (nicotinamide adenine dinucleotide phosphate): 22.5 mg NADPH-Na4 in 1.8 ml potassium phosphate buffer • Acetonitrile: 50 Vol % acetonitrile (1 volume acetonitrile, 1 volume water) • DMSO: 20 Vol % DMSO in water • Stock solution of 20 mg/ml human or mouse liver microsomes (protein)/ml in phosphate buffer
# (§5) Stock solution of 10 mM compound in 100% DMSO
# [2] = Microsomal stability (intrinsic clearance), human liver microsomes; type: in vitro ADME; settings: pH 7.4
# Description: as §1, §2, §3, §4, §5
# Tankyrases = settings: read-out: EC50 [M] TNKS cellular assay; DLD1 cells, 24 hours, Axin2 increase
# PARP-1 = target: T1, PARP-1 (Homo sapiens, UniProt P09874); test: PARP-1 autoparsylation assay (HTRF); type: biochemical; settings: His-tagged Parp-1, autoparsylation HTRF
# T1 construct: purchased Enzo Life Sciences GmbH, Lörrach, Germany
# T1 sequence (P09874 whole entry): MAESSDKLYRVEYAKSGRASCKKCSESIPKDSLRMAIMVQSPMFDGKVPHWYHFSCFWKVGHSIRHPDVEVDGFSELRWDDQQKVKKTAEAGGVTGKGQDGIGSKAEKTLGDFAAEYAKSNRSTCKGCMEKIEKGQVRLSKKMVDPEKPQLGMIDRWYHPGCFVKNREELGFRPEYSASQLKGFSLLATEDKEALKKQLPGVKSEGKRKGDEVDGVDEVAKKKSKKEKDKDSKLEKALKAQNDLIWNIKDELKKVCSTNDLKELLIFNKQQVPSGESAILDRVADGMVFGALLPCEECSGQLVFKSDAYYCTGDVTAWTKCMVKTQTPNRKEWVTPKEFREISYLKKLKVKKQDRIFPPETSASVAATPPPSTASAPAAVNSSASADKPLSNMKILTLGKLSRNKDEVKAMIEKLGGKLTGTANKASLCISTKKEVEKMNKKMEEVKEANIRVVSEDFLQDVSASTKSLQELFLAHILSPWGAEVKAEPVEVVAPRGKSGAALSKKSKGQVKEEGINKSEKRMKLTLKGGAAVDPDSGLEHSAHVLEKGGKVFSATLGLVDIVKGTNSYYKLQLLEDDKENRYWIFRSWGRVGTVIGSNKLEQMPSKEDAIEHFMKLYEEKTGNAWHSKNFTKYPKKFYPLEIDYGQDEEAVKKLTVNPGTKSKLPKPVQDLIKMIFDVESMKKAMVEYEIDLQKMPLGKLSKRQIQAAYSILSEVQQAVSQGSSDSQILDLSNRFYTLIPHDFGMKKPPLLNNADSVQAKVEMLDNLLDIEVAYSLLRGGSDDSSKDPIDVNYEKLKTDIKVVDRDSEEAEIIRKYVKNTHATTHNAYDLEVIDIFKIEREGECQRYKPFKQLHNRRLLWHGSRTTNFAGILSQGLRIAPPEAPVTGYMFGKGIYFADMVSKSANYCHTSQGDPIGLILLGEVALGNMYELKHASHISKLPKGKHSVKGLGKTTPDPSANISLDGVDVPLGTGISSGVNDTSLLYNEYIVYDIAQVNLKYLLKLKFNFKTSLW
# How it was run: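 HTRF emission ratio reports biotin-ADP-ribose self-transfer onto His-tagged PARP-1, with biotinylated NAD/NAD as co-substrate, sensed via cryptate anti-His and Xlent-streptavidin.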
# TNKS1 = target: T2, TNKS1 (Homo sapiens, UniProt O95271); test: TNKS1 activity ELISA (autoparsylation assay); type: biochemical; settings: GST-tagged Tnks-1 (1023-1327 aa)
# T2 construct: GST-tagged Tnks-1 (1023-1327 aa, prepared in-house); made in house
# T2 sequence (O95271 1023-1327): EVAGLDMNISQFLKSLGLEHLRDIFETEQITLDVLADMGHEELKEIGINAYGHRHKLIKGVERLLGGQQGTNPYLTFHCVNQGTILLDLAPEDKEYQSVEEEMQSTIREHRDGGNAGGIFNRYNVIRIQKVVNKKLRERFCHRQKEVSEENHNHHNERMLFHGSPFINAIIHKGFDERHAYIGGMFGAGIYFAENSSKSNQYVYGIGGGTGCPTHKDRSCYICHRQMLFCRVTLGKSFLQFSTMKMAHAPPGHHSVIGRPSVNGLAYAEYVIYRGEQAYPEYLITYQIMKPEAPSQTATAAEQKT
# How it was run: (§6)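 Autoparsylation ELISA: biotinylated NAD serves as co-substrate for plate-bound GST-TNKS1/TNKS2, incubated with test compounds. Readout is HRP luminescence after streptavidin-HRP binding, referenced to the no-inhibitor reaction, from which IC50 values are derived.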
# TNKS2 = target: T3, TNKS2 (Homo sapiens, UniProt Q9H2K2); test: TNKS2 activity ELISA (autoparsylation assay); type: biochemical
# T3 construct: GST-tagged Tnks-2 (873-1166 aa, prepared in-house); made in house
# T3 sequence (Q9H2K2 873-1166): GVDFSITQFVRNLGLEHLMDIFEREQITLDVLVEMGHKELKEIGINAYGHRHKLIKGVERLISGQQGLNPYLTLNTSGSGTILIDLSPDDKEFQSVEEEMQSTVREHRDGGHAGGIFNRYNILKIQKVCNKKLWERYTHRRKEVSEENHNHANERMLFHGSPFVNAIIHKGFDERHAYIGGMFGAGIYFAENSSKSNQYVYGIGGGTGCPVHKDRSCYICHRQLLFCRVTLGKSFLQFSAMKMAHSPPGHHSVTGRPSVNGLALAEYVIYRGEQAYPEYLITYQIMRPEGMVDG
# How it was run: as §6
# [3] = GST-tagged Tnks-2 (873-1166 aa), read-out: IC50 [M] TNKS2 ELISA
SMILES,solubility (Solubility pH 7.4) [µg/mL],microsomal CLint [1] [µL/min/mg],microsomal CLint [2] [µL/min/mg],EC50 (Tankyrases) [M],IC50 (PARP-1) [µM],IC50 (TNKS1) [nM],IC50 (TNKS2; [3]) [M],IC50 (TNKS2) [M]
"COc1ccc(C(=O)C2CCN(C(=O)CCCc3nc4ccccc4c(=O)[nH]3)CC2)cc1 [Compound A1, 2-{4-[4-(4-methoxy-benzoyl)-piperidin-1-yl]-4-oxo-butyl}-3H-quinazolin-4-one, reference compound]",18,120,104,2e-09,,,,
"COc1ccc(C(=O)C2CCN(C(=O)CCCc3nc4c(cnn4C)c(=O)[nH]3)CC2)cc1F [Compound C42, 6-{4-[4-(3-Fluoro-4-methoxy-benzoyl)-piperidin-1-yl]-4-oxo-butyl}-1-methyl-1,5-dihydro-pyrazolo[3,4-d]pyrimidin-4-one]",158,51,16,4.8e-09,12,0.12,< 1e-10,
"Cn1cc(C(=O)C2CCN(C(=O)CCCc3cn4c(F)ccc4c(=O)[nH]3)CC2)cn1 [Compound C208, 6-Fluoro-3-{4-[4-(1-methyl-1H-pyrazole-4-carbonyl)-piperidin-1-yl]-4-oxo-butyl}-2H-pyrrolo[1,2-a]pyrazin-1-one]",101,26,< 10,5.2e-09,6,0.25,2.3e-10,
"COc1ccc(C(=O)C2CCN(C(=O)CCCc3nc4c(c(=O)[nH]3)COCC4)CC2)cc1C [Compound C199, 2-{4-[4-(4-Methoxy-3-methyl-benzoyl)-piperidin-1-yl]-4-oxo-butyl}-3,5,7,8-tetrahydro-pyrano[4,3-d]pyrimidin-4-one]",585,44,12,3.3e-09,2.2,0.27,2.2e-10,
"Cn1ncc2c(=O)[nH]c(CCCC(=O)N3CCC(C(=O)c4ccc(F)cc4)CC3)nc21 [Compound C48, 6-{4-[4-(4-Fluoro-benzoyl)-piperidin-1-yl]-4-oxo-butyl}-1-methyl-1,5-dihydro-pyrazolo[3,4-d]pyrimidin-4-one]",206,59,20,4.4e-09,7.3,0.45,3.1e-10,
"COc1ccc(C(=O)C2CCN(C(=O)CCCc3nc4c(F)cc(F)cc4c(=O)[nH]3)CC2)cc1 [Compound A5, 6,8-difluoro-2-{4-[4-(4-methoxy-benzoyl)-piperidin-1-yl]-4-oxo-butyl}-3H-quinazolin-4-one, reference compound]",5,86,58,2.6e-09,,,,
"N#Cc1cc(C2CCN(C(=O)CCCc3nc4c(c(=O)[nH]3)COCC4)CC2)cnc1N [Compound C194, 6-Amino-1′-[4-(4-oxo-3,5,7,8-tetrahydro-4H-pyrano[4,3-d]pyrimidin-2-yl)-butyryl]-1′,2′,3′,4′,5′,6′-hexahydro-[3,4′]bipyridinyl-5-carbonitrile]",,,,3.1e-06,4.9,15,4.5e-09,
"CCn1cc(C(=O)C2CCN(C(=O)CCCc3nc4c(C)csc4c(=O)[nH]3)CC2)cn1 [Compound C224, 2-{4-[4-(1-Ethyl-1H-pyrazole-4-carbonyl)-piperidin-1-yl]-4-oxo-butyl}-7-methyl-3H-thieno[3,2-d]pyrimidin-4-one trifluoroacetate]",,,,1.8e-08,3.1,0.87,7.1e-10,
"N#Cc1ccc(OC2CCN(C(=O)CCCc3nc4c(c(=O)[nH]3)COCC4)CC2)cc1 [Compound C197, 4-{1-[4-(4-Oxo-3,5,7,8-tetrahydro-4H-pyrano[4,3-d]pyrimidin-2-yl)-butyryl]-piperidin-4-yloxy}-benzonitrile]",,,,3.6e-06,3.2,560,2.4e-07,
"Cn1ncc2c(=O)[nH]c(CCCC(=O)N3CCC(C(=O)c4ccc(F)c(F)c4)CC3)nc21 [Compound C246, 6-{4-[4-(3,4-Difluoro-benzoyl)-piperidin-1-yl]-4-oxo-butyl}-1-methyl-1,5-dihydro-pyrazolo[3,4-d]pyrimidin-4-one]",,,,2.5e-08,13,0.63,3.2e-10,
"COc1ccc(C(=O)C2CCN(C(=O)CCCc3nn4cc(C)cc4c(=O)[nH]3)CC2)cc1F [Compound C158, 2-{4-[4-(3-Fluoro-4-methoxy-benzoyl)-piperidin-1-yl]-4-oxo-butyl}-6-methyl-3H-pyrrolo[2,1-f][1,2,4]triazin-4-one]",,,,4.4e-09,2.1,0.44,9.2e-10,
"COc1ccc(C(=O)C2CCN(C(=O)CCCc3nc4c(c(=O)[nH]3)CCCC4)CC2)cc1 [Compound C227, 2-{4-[4-(4-Methoxy-benzoyl)-piperidin-1-yl]-4-oxo-butyl}-5,6,7,8-tetrahydro-3H-quinazolin-4-one]",,,,3.7e-09,0.41,0.66,4.2e-10,
"COc1ccc(C(=O)C2CCN(C(=O)CCCc3cn4c(C)ncc4c(=O)[nH]3)CC2)cn1 [Compound C99, 6-{4-[4-(6-Methoxy-pyridine-3-carbonyl)-piperidin-1-yl]-4-oxo-butyl}-3-methyl-7H-imidazo[1,5-a]pyrazin-8-one]",,,,1.1e-08,6.7,0.37,1.1e-08,
"COc1ccc(C(=O)C2CCN(C(=O)CCCc3cn4cc(C)cc4c(=O)[nH]3)CC2)cc1 [Compound C8, 3-{4-[4-(4-Methoxy-benzoyl)-piperidin-1-yl]-4-oxo-butyl}-7-methyl-2H-pyrrolo[1,2-a]pyrazin-1-one]",,,,2.8e-09,2.9,< 0.1,1.6e-10,
"Cc1cc2c(=O)[nH]c(CCCC(=O)N3CCC(c4cnc(N)c(C#N)c4)CC3)nn2c1 [Compound C160, 6-Amino-1′-[4-(6-methyl-4-oxo-3,4-dihydro-pyrrolo[2,1-f][1,2,4]triazin-2-yl)-butyryl]-1′,2′,3′,4′,5′,6′-hexahydro-[3,4′]bipyridinyl-5-carbonitrile]",,,,4.9e-08,3.3,1.8,1e-08,
"Cc1scc2c(=O)[nH]c(CCCC(=O)N3CCC(c4cnc(N)c(-c5ncccn5)c4)CC3)nc12 [Compound C116, 2-[4-(6-Amino-5-pyrimidin-2-yl-3′,4′,5′,6′-tetrahydro-2′H-[3,4′]bipyridinyl-1′-yl)-4-oxo-butyl]-7-methyl-3H-thieno[3,4-d]pyrimidin-4-one]",,,,3.6e-09,0.97,0.37,2.1e-10,
"CCn1cc(C(=O)C2CCN(C(=O)CCCc3nn4cc(F)cc4c(=O)[nH]3)CC2)cn1 [Compound C215, 2-{4-[4-(1-Ethyl-1H-pyrazole-4-carbonyl)-piperidin-1-yl]-4-oxo-butyl}-6-fluoro-3H-pyrrolo[2,1-f][1,2,4]triazin-4-one]",,,,1.8e-08,5,1.5,1.4e-09,
"COc1ccc(C(=O)C2CCN(C(=O)CCCc3cn4c(C)ccc4c(=O)[nH]3)CC2)cn1 [Compound C57, 3-{4-[4-(6-Methoxy-pyridine-3-carbonyl)-piperidin-1-yl]-4-oxo-butyl}-6-methyl-2H-pyrrolo[1,2-a]pyrazin-1-one]",,,,7.7e-10,0.00048,0.19,,1.8e-10
